Measurements published in publication PMC3527451, “A Pilot Randomized, Placebo Controlled, Double Blind Phase I Trial of the Novel SIRT1 Activator SRT2104 in Elderly Volunteers” (PLoS ONE, 2012).

Key:
[1] = system: elderly male and female volunteers; assay: Serum lipid profile at baseline and after 28 days treatment; format: in vivo, human
Description: At every visit (including at screening and follow-up), blood and urine samples were collected for clinical laboratory assessments (general blood biochemistry, full blood count, coagulation parameters and urinalysis). On the same days, physical examination, vital signs (resting pulse rate, respiration rate, temperature, and blood pressure readings), pre- and post-dose 12-lead ECG and a review of adverse events (AE) and any medications received were also performed. Safety evaluations were based on the incidence, severity and type of AEs and clinically significant changes from baseline in physical examination findings, vital signs or clinical laboratory results.

[2] = system: bacterial reverse mutation assay (AMES test), mouse lymphoma and mouse micronucleus; parameters: method as in ref 17, 18; SRT2104 Investigator's Brochure; settings: preclinical; SRT2104 Investigator's Brochure; cited from earlier work

With `Cc1nc(-c2cccnc2)sc1C(=O)Nc1ccccc1-c1cn2c(CN3CCOCC3)csc2n1` [SRT2104] the “serum cholesterol levels, change relative to baseline as compared to placebo” value ([1]; 0.5 g/day, day 28, p = 0.0071) was “statistically significant decrease”, the “increase in mean HDL:LDL ratio as compared to placebo” value ([1]; 2.0 g/day, day 28, p = 0.0141) was “statistically significant” and the “serum cholesterol levels, change relative to baseline as compared to placebo” value ([1]; 2.0 g/day, day 28, p = 0.0181) was “statistically significant decrease”. The “total cholesterol, LDL levels and HDL:LDL ratio after drug washout” value ([1]; 7 days of drug washout) was “reverted to baseline values”, the “high-density lipoprotein, HDL” value ([1]; day 28) was “not changes” and the “low-density lipoprotein (LDL) cholesterol” value ([1]; day 28) was “decreases”. For the same compound, the “mean HDL:LDL ratios” value ([1]; day 28, 0.5 and 2.0 g/day) was “dose-dependent increase”, the “mean serum triglyceride concentration” value ([1]; day 28 relative to baseline, as compared to placebo, not dose-dependent, only a trend for 2.0 g/day) was “decrease” and the “Serum cholesterol, LDL levels and triglycerides” value ([1]; with treatment, 0.5 or 2.0 g for 28 days) was “decreased”. For the same compound, the genotoxicity [2] was “not genotoxic”.
